Assay results as given in patent publication US11779014B2, “Adjuvants” (SYNGENTA PARTICIPATIONS AG, priority 2017, dated 2023).

Key:
[1] = De-gelling temperature of aqueous surfactant blends by low shear rheology (Bohlin Gemini rheometer, storage modulus vs temperature); format: physicochemical; conditions: for Degelling temperature: Table 18
Description: The temperatures at which blends of capped and uncapped surfactants de-gel were determined by standard low shear rheology with a Bohlin™ Gemini rheometer. The storage modulus (G′) at 1 Hz was determined at a strain of 0.001-0.002 in a standard C14 cup and bob geometry over a temperature range of 5-70° C., the exact range depending on the de-gelling point of the sample. Plots of storage modulus versus temperature were constructed and the de-gelling temperature was taken to be the point at which the modulus begins to fall rapidly from its high value in the gelled state (typically ca. 10^5 Pa) down to the final value in the de-gelled state (less than 10 Pa). Blends of surfactants were prepared at from 25 to 40% w/w total surfactant concentration in water. Samples were left in an oven at 55° C. for several days to ensure that the mixtures were homogeneous. Samples were placed in the C14 cup and the samples were de-gelled by raising the temperature in the rheometer, the bob was then inserted and the sample was then cooled at 1° C./min, whilst the storage modulus was regularly recorded during the cooling. Once the final temperature had been reached (i.e. when the sample had gelled), the temperature was then increased again and the modulus again recorded. The de-gelling temperature was determined from the increasing temperature cycle.
Degelling temperatures—the measurements relied on the same method as for ‘Example 1’ but just at 30% w/w total surfactant concentration.
De-gelling temperatures were measured using the same method as in Example 1.
This example provides de-gelling, cloud point and adjuvancy data for dodecyl 23 ethoxylate with n-hexyl cap and hexadecyl 20 ethoxylate with n-hexyl cap Cloud points were measured as described in example 1 for 1% aqueous solutions of the capped and uncapped surfactants both individually and as blends (see Table 30). Degelling temperatures were also measured as outlined in example 1 for 25, 30, 35 and 40% aqueous solutions of the capped and uncapped surfactants both individually and as blends (see Table 31).
This example provides de-gelling, cloud point and adjuvancy data for oleyl 20 ethoxylate with n-butyl, n-pentyl or benzyl ether caps end capped oleyl 20 ethoxylate. Cloud points were measured as described in example 1 for 1% aqueous solutions of the capped and uncapped surfactants both individually and as blends. Degelling temperatures were also measured as outlined in example 1 for 25, 30, 35 and 40% aqueous solutions o of the capped and uncapped surfactants both individually and as blends.

Setaria viridis (SETVI) = test: Glasshouse adjuvancy test for pinoxaden on SETVI; format: in vivo; conditions: total surfactant 0.2% w/v, 21 days
Description: Pinoxaden was added to the spray tank as a standard EC (emulsifiable concentrate) formulation. The plants were sprayed with pinoxaden at rates of 7.5 or 15 grams of pesticide per hectare using a laboratory track sprayer which delivered the aqueous spray composition at a rate of 200 litres per hectare, using a flat fan nozzle (Teejet 11002VS) at 2 bar. The spray solutions also contained the oleyl 20EO alone or in the 1:1 blends with the capped surfactants. The adjuvants were added to the spray solution at a total surfactant rate of 0.2% w/v. All spray solutions also contained 10% w/w of iso-propanol. The weed species and their BBCH growth stage at spraying were Avena fatua (AVEFA; growth stage 13) and Setaria viridis (SETVI; growth stage 13). Each spray test was replicated three times. The test plants were then grown in a glasshouse under controlled conditions (20/16° C. day/night; 16 hours light; 65% humidity) and watered twice a day. The efficacy of the herbicide was assessed visually and expressed as a percentage of the leaf area killed. Samples were assessed at a time period of 21 days following application.

[2] = tested on: Chenopodium album (CHEAL); test: Glasshouse adjuvancy test for fomesafen (sodium salt) on CHEAL; format: in vivo; conditions: total surfactant 0.2% w/v, 21 days
Description: Fomesafen sodium salt was added to the spray tank as a standard SL (soluble concentrate) formulation. The plants were sprayed with fomesafen (sodium salt) at rates of 100 or 200 grams of sodium fomesafen per hectare using a laboratory track sprayer which delivered the aqueous spray composition at a rate of 200 litres per hectare, using a flat fan nozzle (Teejet 11002VS) at 2 bar. The spray solutions also contained the oleyl 20EO alone or in the 1:1 blends with the capped surfactants. The adjuvants were added to the spray solution at a total surfactant rate of 0.2% w/v. All spray solutions also contained 10% w/w of iso-propanol. The weed specie and its BBCH growth stage at spraying was Chenopodium album (CHEAL; growth stage 15). Each spray test was replicated three times. The test plants were then grown in a glasshouse under controlled conditions (24/18° C. day/night; 16 hours light; 65% humidity) and watered twice a day. The efficacy of the herbicide was assessed visually and expressed as a percentage of the leaf area killed. Samples were assessed at a time period of 21 days following application.

[3] = tested on: Digitaria sanguinalis (DIGSA); test: Glasshouse adjuvancy test for mesotrione on DIGSA; format: in vivo; conditions: total surfactant 0.2% w/v, 21 days
Description: (§1) Mesotrione was added to the spray tank as a standard SC (suspension concentrate) formulation. The plants were sprayed with mesotrione at rates of 30 or 60 grams of pesticide per hectare using a laboratory track sprayer which delivered the aqueous spray composition at a rate of 200 litres per hectare, using a flat fan nozzle (Teejet 11002VS) and an application volume of 200 litre/ha (at 2 bar). The spray solutions also contained the oleyl 20EO alone or in 1:1 blends with the capped surfactants. The adjuvants were added to the spray solution at a total surfactant rate of 0.2% w/v. All spray solutions also contained 10% w/w of iso-propanol. The weed species and their BBCH growth stage at spraying were Brachiaria platyphylla (BRAPL; growth stage 12-13), Commelina benghalensis (COMBE; growth stage 12-14) and Digitaria sanguinalis (DIGSA; growth stage 13). Each spray test was replicated three times. The test plants were then grown in a glasshouse under controlled conditions (24/18° C. day/night; 16 hours light; 65% humidity) and watered twice a day. The efficacy of the herbicide was assessed visually and expressed as a percentage of the leaf area killed. Samples were assessed at a time period of 21 days following application

[4] = tested on: Brachiaria platyphylla (BRAPL); test: Glasshouse adjuvancy test for mesotrione on BRAPL; format: in vivo; conditions: total surfactant 0.2% w/v, 21 days
Description: as §1

[5] = tested on: Commelina benghalensis (COMBE); test: Glasshouse adjuvancy test for mesotrione on COMBE; format: in vivo; conditions: total surfactant 0.2% w/v, 21 days
Description: as §1

[6] = total surfactant concentration 25% w/w in water, Table 1
[7] = total surfactant concentration 30% w/w in water, Table 1
[8] = total surfactant concentration 35% w/w in water, Table 1
[9] = total surfactant concentration 40% w/w in water, Table 1

Compound `CCCCCCCC/C=C\CCCCCCCCOCCOCCOCCOCCOCCOCCOCCOCCOCCOCCOCCOCCOCCOCCOCCOCCOCCOCCOCCOCCO` [Oleyl 20EO, oleyl 20 ethoxylate] has a De-gelling temperature ([1]; 30% w/w total surfactant concentration, Table 15) of 42.4 °C, a De-gelling temperature ([1]; 40% w/w, Table 19) of 66.3 °C and a De-gelling temperature [1, 6] of 26.9 °C. For the same compound, the Degelling temperature ([1]; total surfactant concentration 25% w/w) was 26.9 °C, the De-gelling temperature ([1]; total surfactant concentration 25% w/w, Table 35) was 23.3 °C and the De-gelling temperature [1, 7] was 45.2 °C. It also gave a Degelling temperature ([1]; total surfactant concentration 30% w/w) of 45.2 °C, a De-gelling temperature ([1]; total surfactant concentration 30% w/w, Table 35) of 40.9 °C and a De-gelling temperature [1, 8] of 51.3 °C. For the same compound, the Degelling temperature ([1]; total surfactant concentration 35% w/w) was 51.3 °C, the De-gelling temperature ([1]; total surfactant concentration 35% w/w, Table 35) was 56.7 °C and the De-gelling temperature [1, 9] was 70.6 °C. It also gave a Degelling temperature ([1]; total surfactant concentration 40% w/w) of 70.6 °C, a De-gelling temperature ([1]; total surfactant concentration 40% w/w, Table 35) of 63.1 °C and a Mean control (Setaria viridis (SETVI); pinoxaden 7.5 g ai/ha) of 98.0%. The Mean control (Setaria viridis (SETVI); pinoxaden 15 g ai/ha) was 98.3%, the Mean control ([2]; fomesafen (sodium salt) 100 g ai/ha) was 68.3% and the Mean control ([2]; fomesafen (sodium salt) 200 g ai/ha) was 68.3%. For the same compound, the Mean control ([3]; mesotrione 30 g ai/ha) was 68.3%, the Mean control ([3]; mesotrione 60 g ai/ha) was 75.0% and the Mean control ([4]; mesotrione 30 g ai/ha) was 56.7%. For the same compound, the Mean control ([4]; mesotrione 60 g ai/ha) was 71.7%, the Mean control ([5]; mesotrione 30 g ai/ha) was 66.7% and the Mean control ([5]; mesotrione 60 g ai/ha) was 76.7%.

Work on Oleyl 20EO n-hexyl ether yielded a De-gelling temperature [1, 6] of 5.0 °C, a De-gelling temperature [1, 7] of 5.0 °C and a De-gelling temperature [1, 8] of 5.0 °C. For the same compound, the De-gelling temperature [1, 9] was 16.7 °C.
